Values of other authors as cited in patent US8338423B2, “Compositions for the treatment of hyperphenylalaninemia” (Universidad de Zaragoza, priority 2007, dated 2012).

Target: T1, wt-PAH (Homo sapiens, UniProt P00439)
T1 construct: made in house; host or cells: E. coli
T1 sequence (P00439 1-452): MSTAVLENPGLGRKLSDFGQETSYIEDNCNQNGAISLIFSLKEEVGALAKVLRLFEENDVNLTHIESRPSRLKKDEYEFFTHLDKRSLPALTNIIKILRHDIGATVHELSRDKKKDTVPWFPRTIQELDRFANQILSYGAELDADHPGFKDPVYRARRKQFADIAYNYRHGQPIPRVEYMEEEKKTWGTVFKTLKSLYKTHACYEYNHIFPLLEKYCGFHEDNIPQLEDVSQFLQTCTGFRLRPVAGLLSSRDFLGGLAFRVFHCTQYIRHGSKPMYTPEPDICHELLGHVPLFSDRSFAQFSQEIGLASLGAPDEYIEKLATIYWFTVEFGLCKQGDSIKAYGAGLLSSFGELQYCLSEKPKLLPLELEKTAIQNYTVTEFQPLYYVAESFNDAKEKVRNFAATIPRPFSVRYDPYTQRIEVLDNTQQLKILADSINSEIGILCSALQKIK
Conditions: comparison values; read-out: Kl of likely physiological inhibitors of PAH; cited from earlier work

Row | SMILES | Ki [µM]
1 | C[C@H](O)[C@H](O)C1=Nc2c(nc(N)[nH]c2=O)NC1 [BH2] | ~17
2 | CC(O)C(O)C1CNc2c(nc(N)[nH]c2=O)N1 (stereo not drawn) [Compound 7S-BH4] | 2 to 5
